Test results published in PubChem BioAssay AID1963421 (Molecular Pharmacology Branch, DTP, NCI, 2024).

Tested on: 519858-162-T-J1-PDC complex spheroid growth, % test/control
Test: Anticancer human tumor 519858-162-T-J1-PDC patient-derived colon adenocarcinoma cell line growth inhibition [Asc]
Conditions: for IC50: curve of first compound; for viability, T/C: stronger effect = lower value; active means viability on the fitted dose curve at most 10% of control; inactive means the rest
Protocol: Multicellular complex tumor spheroid response to apoptosis pathway targeting inhibitors Alrizomadlin, Pelcitoclax, and Dasminapant in combination with a variety of drugs and investigational agents in selected tumor cell lines
The MDM2 inhibitor alrizomadlin, the Bcl-2/Bcl-xL inhibitor pelcitoclax, and the IAPs inhibitor dasminapant were evaluated both individually and in combination with standard of care and investigational anticancer small molecules within a complex spheroid model of solid tumors. . Complex spheroids include a stromal component modeled by human endothelial cells (HUVEC) and fibroblasts modeled by human mesenchymal stem cells (MSCs). The concentration ranges selected for each drug and investigational agent were based upon clinically achievable concentrations if the clinical Cmax of the agent was known.
Compounds. The drugs and investigational agents: alrizomadlin (APG-115; NSC831270), pelcitoclax (APG-1252; NSC835773), dasminapant (APG-1387;NSC834197), TAK-243 (NSC785004), copanlisib (NSC809693), olaparib (NSC753686), talazoparib (NSC767125), cobimetinib (NSC 768068), eltanexor (KPT-8602, NSC 794443), abemaciclib (NSC 768073), sotorasib (NSC818433), adagrasib (NSC 831453), MRTX-1133 (NSC 836407), Iadademestat (ORY1001, NSC 806812), and RMC-4630 (NSC839698), were obtained from the NCI Developmental Therapeutics Program Chemical Repository. The FDA-approved anticancer drug set is available from the Developmental Therapeutics Program at https://dtp.cancer.gov/organization/dscb/obtaining/available plates.htm. […] The stock solutions were prepared in dimethyl sulfoxide (DMSO, Sigma-Aldrich, St. Louis, MO, cat. D2650) at 800-fold the tested concentration and stored at -70 degrees C prior to their use. All drugs and investigational agents were tested over a range starting from a high concentration at or near the clinical Cmax and decreasing in half-log increments. If the clinical Cmax for an agent had not been determined, the highest concentration tested was 10 microM.
The patient-derived cancer (PDC) cell lines include five colon adenocarcinomas: 186277-243-T-J2-PDC, 616215-338-R-J1-PDC, 439559-082-T-J2-PDC, 463943-066-T-J2-PDC, and 519858-162-T-J1-PDC; three pancreatic carcinomas: 323965-272-R-J2-PDC, 521955-158-R6-J3-PDC, and 521955-158-R2-J5-PDC; two uterine sarcomas: 327498-152-R-J2-PDC and 993429-296-R-J1-PDC; two rhabdomyosarcomas: 755483-174-R-J1-PDC and 772245-204-R-J1-PDC; two soft tissue sarcomas: 126254-015-R-J1-PDC and 494315-158-R-J1-PDC; two malignant fibrous histiocytomas: 317291-083-R-J1-PDC and 596521-263-R-J1-PDC; two breast carcinomas: 171881-019-R-J1-PDC and 885512-296-R-J2-PDC; and one ovarian carcinoma: 6556581-035-R-J-PDC were obtained from the NCI PDMR, (https://pdmr.cancer.gov). The established cell lines HSSY-2 synovial sarcoma (RRID:CVCL 8719), SYO-1 synovial sarcoma (RRID:CVCL_7146), MPNST malignant peripheral neural sheath tumor were obtained from the Sloan Kettering Institute. The following established cell lines were purchased from the American Type Culture Collection (ATCC, Manassas, VA), Sor the received from the NCI repository:, PANC-1 pancreatic carcinoma (CRL-1469, RRID:CVCL_0480), OVCAR-5 ovarian carcinoma (RRID:CVCL_1628), OVCAR-8 ovarian carcinoma (RRID:CVCL_1629), , MCF-7 breast carcinoma (CRL-12584, RRID:CVCL_0031), MDA-MB-231 breast carcinoma (CRL-12532, RRID:CVCL_0062), NCI-H1876 small cell lung carcinoma (CRL-5902, RRID:CVCL_1503), NCI-H510A small cell lung carcinoma (HTB-184, RRID:CVCL_1565), NCI-H1417 (CRL-5869, RRID:CVCL_1469), and NCI-H196 small cell lung carcinoma (CRL-5823, RRID:CVCL_1509). Dr. Peter Houghton (Greehey Children's Cancer Research Institute, University of Texas Health Science Center, San Antonio, TX) provided Rh-18 rhabdomyosarcoma (RRID:CVCL_1659). Pooled donor human umbilical vein endothelial cells (HUVEC, Lonza, cat. CC-2519) and human mesenchymal stem cells (hMSC, Lonza, cat. PT-2501) were purchased from Lonza (Walkersville, MD).
Cell Culture. […]

[1] = second compound 0.00949 µM, first compound 0.00316 µM
[2] = second compound 0.00949 µM, first compound 0.01 µM
[3] = second compound 0.00949 µM, first compound 0.0316 µM
[4] = second compound 0.00949 µM, first compound 0.1 µM
[5] = second compound 0.03 µM, first compound 0.00316 µM
[6] = second compound 0.03 µM, first compound 0.01 µM
[7] = second compound 0.03 µM, first compound 0.0316 µM
[8] = second compound 0.03 µM, first compound 0.1 µM
[9] = second compound 0.0949 µM, first compound 0.00316 µM
[10] = second compound 0.0949 µM, first compound 0.01 µM
[11] = second compound 0.0949 µM, first compound 0.0316 µM
[12] = second compound 0.0949 µM, first compound 0.1 µM
[13] = second compound 0.3 µM, first compound 0.00316 µM
[14] = second compound 0.3 µM, first compound 0.01 µM
[15] = second compound 0.3 µM, first compound 0.0316 µM
[16] = second compound 0.3 µM, first compound 0.1 µM
[17] = second compound 0.949 µM, first compound 0.00316 µM
[18] = second compound 0.949 µM, first compound 0.01 µM
[19] = second compound 0.949 µM, first compound 0.0316 µM
[20] = second compound 0.949 µM, first compound 0.1 µM
[21] = second compound 3 µM, first compound 0.00316 µM
[22] = second compound 3 µM, first compound 0.01 µM
[23] = second compound 3 µM, first compound 0.0316 µM
[24] = second compound 3 µM, first compound 0.1 µM
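Further: seven day drug exposure begun three days after spheroid seeding.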
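Wherever viability, T/C is given: 100% = DMSO vehicle wells and lower values mean less viable spheroid.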

Cn1ncnc1[C@H]1c2n[nH]c(=O)c3cc(F)cc(c23)N[C@@H]1c1ccc(F)cc1 + CCN1C(C(=O)NC23CCC(C(=O)O)(CC2)CC3)C(c2cccc(Cl)c2F)C2(C(=O)Nc3cc(Cl)ccc32)C12CCCCC2
inactive: viability, T/C (second compound 0.00949 µM, first compound 0.000316 µM) 87% | viability, T/C (second compound 0.00949 µM, first compound 0.001 µM) 86.3% | viability, T/C [1] 103% | viability, T/C [2] 103% | viability, T/C [3] 84.8% | viability, T/C [4] 98.1% | viability, T/C (second compound 0.03 µM, first compound 0.000316 µM) 119% | viability, T/C (second compound 0.03 µM, first compound 0.001 µM) 82.3% | viability, T/C [5] 72% | viability, T/C [6] 91.5% | viability, T/C [7] 74.6% | viability, T/C [8] 65.5% | viability, T/C (second compound 0.0949 µM, first compound 0.000316 µM) 137% | viability, T/C (second compound 0.0949 µM, first compound 0.001 µM) 56.1% | viability, T/C [9] 105% | viability, T/C [10] 82.4% | viability, T/C [11] 90.6% | viability, T/C [12] 87.5% | viability, T/C (second compound 0.3 µM, first compound 0.000316 µM) 103% | viability, T/C (second compound 0.3 µM, first compound 0.001 µM) 90.7% | viability, T/C [13] 93.7% | viability, T/C [14] 97.3% | viability, T/C [15] 75.4% | viability, T/C [16] 91.1% | viability, T/C (second compound 0.949 µM, first compound 0.000316 µM) 75.2% | viability, T/C (second compound 0.949 µM, first compound 0.001 µM) 92.3% | viability, T/C [17] 108% | viability, T/C [18] 72.3% | viability, T/C [19] 91.9% | viability, T/C [20] 95.8% | viability, T/C (second compound 3 µM, first compound 0.000316 µM) 70.2% | viability, T/C (second compound 3 µM, first compound 0.001 µM) 68.8% | viability, T/C [21] 68.3% | viability, T/C [22] 74.2% | viability, T/C [23] 107% | viability, T/C [24] 85.1%
> 0.1 µM: IC50 (second compound 0.00949 µM) | IC50 (second compound 0.03 µM) | IC50 (second compound 0.0949 µM) | IC50 (second compound 0.3 µM) | IC50 (second compound 0.949 µM) | IC50 (second compound 3 µM)

O=C(c1ccc(F)c(F)c1Nc1ccc(I)cc1F)N1CC(O)([C@@H]2CCCCN2)C1 + CCN1C(C(=O)NC23CCC(C(=O)O)(CC2)CC3)C(c2cccc(Cl)c2F)C2(C(=O)Nc3cc(Cl)ccc32)C12CCCCC2
inactive: viability, T/C [1] 57.3% | viability, T/C [2] 86.8% | viability, T/C [3] 88.8% | viability, T/C [4] 116% | viability, T/C (second compound 0.00949 µM, first compound 0.316 µM) 30.6% | viability, T/C (second compound 0.00949 µM, first compound 1 µM) 19.1% | viability, T/C [5] 126% | viability, T/C [6] 91.1% | viability, T/C [7] 93.1% | viability, T/C [8] 56% | viability, T/C (second compound 0.03 µM, first compound 0.316 µM) 42.5% | viability, T/C (second compound 0.03 µM, first compound 1 µM) 17.6% | viability, T/C [9] 105% | viability, T/C [10] 115% | viability, T/C [11] 64.8% | viability, T/C [12] 79.9% | viability, T/C (second compound 0.0949 µM, first compound 0.316 µM) 36.1% | viability, T/C (second compound 0.0949 µM, first compound 1 µM) 15.5% | viability, T/C [13] 90.5% | viability, T/C [14] 90% | viability, T/C [15] 66.1% | viability, T/C [16] 91.8% | viability, T/C (second compound 0.3 µM, first compound 0.316 µM) 41.1% | viability, T/C (second compound 0.3 µM, first compound 1 µM) 17.2% | viability, T/C [17] 81% | viability, T/C [18] 64% | viability, T/C [19] 73% | viability, T/C [20] 70.1% | viability, T/C (second compound 0.949 µM, first compound 0.316 µM) 44.3% | viability, T/C (second compound 0.949 µM, first compound 1 µM) 21.9% | viability, T/C [21] 68.4% | viability, T/C [22] 104% | viability, T/C [23] 46.3% | viability, T/C [24] 65.7% | viability, T/C (second compound 3 µM, first compound 0.316 µM) 39.5% | viability, T/C (second compound 3 µM, first compound 1 µM) 14.3%
0.246 µM: IC50 (second compound 0.949 µM)
0.25 µM: IC50 (second compound 0.3 µM)
0.13 µM: IC50 (second compound 0.03 µM)
0.213 µM: IC50 (second compound 0.00949 µM)
0.211 µM: IC50 (second compound 0.0949 µM)
0.167 µM: IC50 (second compound 3 µM)
